Laboratory results reported in patent publication US8840938B2, “Bioavailability enhancing composition” (priority 2011, dated 2014).
Where two headings read alike, the source gives them in different places.

Columns and labels:
TRPV1 = TRPV1 (Homo sapiens, UniProt Q8NER1); assay: Scoville Heat Unit (SHU) as a measure of TRPV1 activation; details: for Adjusted SHU: SHU of pure agonist times percent agonist in the herb, totals per herb; for SHU of pure Agonist: pure TRPV1 agonist, per mg
Description: SHU as used herein as a measure of TRPV1 activation. SHU mg is calculated as the SHU of a TRPV1 agonist multiplied by the milligrams of the TRPV1 agonist in a compound.

[1] = cited from earlier work; for Peak theophylline plasma levels / levels of theophylline (absorption) / mean residence times of theophylline: rabbits, oral theophylline 20 mg/kg
[2] = concomitant ground capsicum fruit suspension

Sequence of TRPV1 (Q8NER1 whole entry, species assumed): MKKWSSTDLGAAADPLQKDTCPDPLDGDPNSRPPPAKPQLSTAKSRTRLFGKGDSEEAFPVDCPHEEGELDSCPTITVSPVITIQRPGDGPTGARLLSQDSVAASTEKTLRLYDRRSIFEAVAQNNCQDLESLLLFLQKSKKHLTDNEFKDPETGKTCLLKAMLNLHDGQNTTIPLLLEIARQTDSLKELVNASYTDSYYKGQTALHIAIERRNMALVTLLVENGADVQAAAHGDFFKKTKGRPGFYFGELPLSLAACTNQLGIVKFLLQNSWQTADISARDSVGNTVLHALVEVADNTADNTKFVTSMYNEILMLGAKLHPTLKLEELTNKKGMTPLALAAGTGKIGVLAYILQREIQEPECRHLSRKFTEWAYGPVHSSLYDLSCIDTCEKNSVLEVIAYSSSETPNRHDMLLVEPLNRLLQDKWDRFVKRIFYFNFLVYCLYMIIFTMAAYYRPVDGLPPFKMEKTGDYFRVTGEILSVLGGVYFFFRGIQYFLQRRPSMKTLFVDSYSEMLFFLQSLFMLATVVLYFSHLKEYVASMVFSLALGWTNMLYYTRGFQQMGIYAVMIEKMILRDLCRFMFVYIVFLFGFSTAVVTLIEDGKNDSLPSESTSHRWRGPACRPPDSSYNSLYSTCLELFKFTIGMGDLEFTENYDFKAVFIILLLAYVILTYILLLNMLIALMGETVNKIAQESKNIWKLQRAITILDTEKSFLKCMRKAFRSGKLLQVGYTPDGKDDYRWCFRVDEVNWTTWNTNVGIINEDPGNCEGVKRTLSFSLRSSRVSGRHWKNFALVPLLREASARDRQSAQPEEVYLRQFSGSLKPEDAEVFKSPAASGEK

Structure (SMILES)	Adjusted SHU (TRPV1)	SHU of pure Agonist (TRPV1)	further results
CCCCC/C=C/C(=O)CCc1ccc(O)c(OC)c1 [Formulation 6-shogaol, 6-shogaol]	9,600 SHU	160,000 SHU	
C/C=C/C=C/C=C\CC/C=C/C=C/C(=O)NCC(C)C [γ-sanshool]	209 SHU	110,000 SHU	
C/C=C/C=C/C=C/CC/C=C/C(=O)NCC(C)C [β-sanshool]	49 SHU	70,000 SHU	
Cn1c(=O)c2[nH]cnc2n(C)c1=O [theophylline]			Peak theophylline plasma levels [1, 2]: 8.78 ± 0.98 mg/L; levels of theophylline (absorption) [1, 2]: 138.32+/−17.27 mg H/liter; mean residence times of theophylline [1, 2]: 20.98+/−5.75 H; Peak theophylline plasma levels ([1]; without capsicum): 6.65 ± 0.76 mg/L; levels of theophylline (absorption) ([1]; without capsicum): 86.06+/−9.78 mg H/liter; mean residence times of theophylline ([1]; without capsicum): 14.94+/−2.97 H; theophylline plasma levels after second administration of capsicum suspension ([1]; second capsicum suspension 11 hours later, every rabbit): new rise
C/C=C/C=C/C=C\CC/C=C/C(=O)NCC(C)(C)O [α-hydroxy-sanshool]	619 SHU	26,000 SHU	
CCCCC[C@H](O)CC(=O)CCc1ccc(O)c(OC)c1 [Formulation 6-gingerol, 6-gingerol]	3,600 SHU	60,000 SHU	
C/C=C/C=C/C=C/CC/C=C/C=C/C(=O)NCC(C)C [δ-sanshool]	22 SHU	110,000 SHU	
COc1cc(CNC(=O)CCCC/C=C/C(C)C)ccc1O [capsaicin]	40,000 SHU	16,000,000 SHU	
C/C=C/C=C/C=C/CC/C=C/C(=O)NCC(C)(C)O [β-hydroxy-sanshool]	35 SHU	13,000 SHU	
C/C=C/C=C/C=C\CC/C=C/C(=O)NCC(C)C [α-sanshool]	368 SHU	80,000 SHU	
